# According to PubChem BioAssay (NCI):
# “And” between values parts separate entries of the source, which are not always exact repeats. Equal entries are not always repeated.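 Each compound was tested at five concentrations against cells in 96-well plates for 48 hours. At the GI50, growth is halved. TGI denotes the concentration required for complete inhibition of growth.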
# Key:
# Test in all cases: inhibition of tumour cell growth, NCI panel, 48 h
# 786-0 renal = test system: 786-0 renal
# A498 renal = test system: A498 renal
# A549 NSCLC = test system: A549 NSCLC
# ACHN renal = test system: ACHN renal
# CAKI-1 renal = test system: CAKI-1 renal
# CCRF-CEM leukemia = test system: CCRF-CEM leukemia
# COLO 205 colon = test system: COLO 205 colon
# DLD-1 colon = test system: DLD-1 colon
# DMS 114 small cell lung = test system: DMS 114 small cell lung
# EKVX NSCLC = test system: EKVX NSCLC
# HCC-2998 colon = test system: HCC-2998 colon
# HCT-116 colon = test system: HCT-116 colon
# HOP-62 NSCLC = test system: HOP-62 NSCLC
# HT29 colon = test system: HT29 colon
# IGROV1 ovarian = test system: IGROV1 ovarian
# K-562 leukemia = test system: K-562 leukemia
# KM12 colon = test system: KM12 colon
# KM20L2 colon = test system: KM20L2 colon
# LOX IMVI melanoma = test system: LOX IMVI melanoma
# LXFL 529 NSCLC = test system: LXFL 529 NSCLC
# M14 melanoma = test system: M14 melanoma
# M19-MEL melanoma = test system: M19-MEL melanoma
# MALME-3M melanoma = test system: MALME-3M melanoma
# MOLT-4 leukemia = test system: MOLT-4 leukemia
# NCI-H226 lung = test system: NCI-H226 lung
# NCI-H23 lung = test system: NCI-H23 lung
# NCI-H460 lung = test system: NCI-H460 lung
# NCI-H522 lung = test system: NCI-H522 lung
# OVCAR-3 ovarian = test system: OVCAR-3 ovarian
# OVCAR-4 ovarian = test system: OVCAR-4 ovarian
# OVCAR-8 ovarian = test system: OVCAR-8 ovarian
# RPMI-8226 leukemia = test system: RPMI-8226 leukemia
# RXF 393 renal = test system: RXF 393 renal
# RXF-631 renal = test system: RXF-631 renal
# SF-268 CNS = test system: SF-268 CNS
# SF-295 CNS = test system: SF-295 CNS
# SF-539 CNS = test system: SF-539 CNS
# SK-MEL-2 melanoma = test system: SK-MEL-2 melanoma
# SK-MEL-28 melanoma = test system: SK-MEL-28 melanoma
# SK-MEL-5 melanoma = test system: SK-MEL-5 melanoma
# SK-OV-3 ovarian = test system: SK-OV-3 ovarian
# SN12C renal = test system: SN12C renal
# SNB-19 CNS = test system: SNB-19 CNS
# SNB-75 CNS = test system: SNB-75 CNS
# SW-620 colon = test system: SW-620 colon
# TK-10 renal = test system: TK-10 renal
# U251 CNS = test system: U251 CNS
# UACC-257 melanoma = test system: UACC-257 melanoma
# UACC-62 melanoma = test system: UACC-62 melanoma
# UO-31 renal = test system: UO-31 renal
# XF 498 CNS = test system: XF 498 CNS
# DMS 273 small cell lung = test system: DMS 273 small cell lung
# HCT-15 colon = test system: HCT-15 colon
# HL-60(TB) leukemia = test system: HL-60(TB) leukemia
# HOP-18 NSCLC = test system: HOP-18 NSCLC
# HOP-92 NSCLC = test system: HOP-92 NSCLC
# OVCAR-5 ovarian = test system: OVCAR-5 ovarian
# SNB-78 CNS = test system: SNB-78 CNS
# SR leukemia = test system: SR leukemia
structure (smiles),measurement,setting,value
Cc1ccc(C(=O)C(C)N)cc1C (stereo not given),TGI,786-0 renal,> 100 µM
same,TGI,A498 renal,> 100 µM
same,TGI,A549 NSCLC,> 100 µM
same,TGI,ACHN renal,> 100 µM
same,TGI,CAKI-1 renal,> 100 µM
same,TGI,CCRF-CEM leukemia,> 100 µM
same,TGI,COLO 205 colon,> 100 µM
same,TGI,DLD-1 colon,> 100 µM
same,TGI,DMS 114 small cell lung,> 100 µM
same,TGI,EKVX NSCLC,> 100 µM
same,TGI,HCC-2998 colon,> 100 µM
same,TGI,HCT-116 colon,> 100 µM
same,TGI,HOP-62 NSCLC,> 100 µM
same,TGI,HT29 colon,> 100 µM
same,TGI,IGROV1 ovarian,> 100 µM
same,TGI,K-562 leukemia,> 100 µM
same,TGI,KM12 colon,> 100 µM
same,TGI,KM20L2 colon,> 100 µM
same,TGI,LOX IMVI melanoma,> 100 µM
same,TGI,LXFL 529 NSCLC,> 100 µM
same,TGI,M14 melanoma,> 100 µM
same,TGI,M19-MEL melanoma,> 100 µM
same,TGI,MALME-3M melanoma,> 100 µM
same,TGI,MOLT-4 leukemia,> 100 µM
same,TGI,NCI-H226 lung,> 100 µM
same,TGI,NCI-H23 lung,> 100 µM
same,TGI,NCI-H460 lung,> 100 µM
same,TGI,NCI-H522 lung,> 100 µM
same,TGI,OVCAR-3 ovarian,> 100 µM
same,TGI,OVCAR-4 ovarian,> 100 µM
same,TGI,OVCAR-8 ovarian,> 100 µM
same,TGI,RPMI-8226 leukemia,> 100 µM
same,TGI,RXF 393 renal,> 100 µM
same,TGI,RXF-631 renal,> 100 µM
same,TGI,SF-268 CNS,> 100 µM
same,TGI,SF-295 CNS,> 100 µM
same,TGI,SF-539 CNS,> 100 µM
same,TGI,SK-MEL-2 melanoma,> 100 µM
same,TGI,SK-MEL-28 melanoma,> 100 µM
same,TGI,SK-MEL-5 melanoma,> 100 µM
same,TGI,SK-OV-3 ovarian,> 100 µM
same,TGI,SN12C renal,> 100 µM
same,TGI,SNB-19 CNS,> 100 µM
same,TGI,SNB-75 CNS,> 100 µM
same,TGI,SW-620 colon,> 100 µM
same,TGI,TK-10 renal,> 100 µM
same,TGI,U251 CNS,> 100 µM
same,TGI,UACC-257 melanoma,> 100 µM
same,TGI,UACC-62 melanoma,> 100 µM
same,TGI,UO-31 renal,> 100 µM
same,TGI,XF 498 CNS,> 100 µM
CC1=C(C(=O)NCc2ccccc2)C(c2ccccc2O)C(C(=O)NCc2ccccc2)=C(C)N1,TGI,786-0 renal,33.7 µM
same,TGI,A498 renal,33.9 µM
same,TGI,A549 NSCLC,44.6 µM
same,TGI,ACHN renal,30.9 µM
same,TGI,CAKI-1 renal,44.3 µM
same,TGI,CCRF-CEM leukemia,82.9 µM
same,TGI,COLO 205 colon,30.9 µM
same,TGI,DLD-1 colon,36 µM
same,TGI,DMS 114 small cell lung,35.7 µM
same,TGI,DMS 273 small cell lung,31.2 µM
same,TGI,EKVX NSCLC,45.6 µM
same,TGI,HCC-2998 colon,35.9 µM
same,TGI,HCT-116 colon,28.5 µM
same,TGI,HCT-15 colon,30.2 µM
same,TGI,HL-60(TB) leukemia,62.2 µM
same,TGI,HOP-18 NSCLC,60.1 µM
same,TGI,HOP-62 NSCLC,39.5 µM
same,TGI,HOP-92 NSCLC,48.7 µM
same,TGI,HT29 colon,38.5 µM
same,TGI,IGROV1 ovarian,39 µM
same,TGI,K-562 leukemia,88.9 µM
same,TGI,KM12 colon,31.5 µM
same,TGI,KM20L2 colon,37 µM
same,TGI,LOX IMVI melanoma,30.1 µM
same,TGI,LXFL 529 NSCLC,28.7 µM
same,TGI,M14 melanoma,32.4 µM
same,TGI,M19-MEL melanoma,35.7 µM
same,TGI,MALME-3M melanoma,30.1 µM
same,TGI,MOLT-4 leukemia,> 100 µM
same,TGI,NCI-H226 lung,30.8 µM
same,TGI,NCI-H23 lung,34.1 µM
same,TGI,NCI-H460 lung,39.2 µM
same,TGI,NCI-H522 lung,31.4 µM
same,TGI,OVCAR-3 ovarian,31.9 µM
same,TGI,OVCAR-4 ovarian,35.4 µM
same,TGI,OVCAR-5 ovarian,38 µM
same,TGI,OVCAR-8 ovarian,40.9 µM
same,TGI,RPMI-8226 leukemia,> 100 µM
same,TGI,RXF 393 renal,34.4 µM
same,TGI,SF-268 CNS,55.3 µM
same,TGI,SF-295 CNS,44.7 µM
same,TGI,SF-539 CNS,38.5 µM
same,TGI,SK-MEL-2 melanoma,32.6 µM
same,TGI,SK-MEL-28 melanoma,35.8 µM
same,TGI,SK-MEL-5 melanoma,28.6 µM
same,TGI,SK-OV-3 ovarian,64.9 µM
same,TGI,SN12C renal,32.3 µM
same,TGI,SNB-19 CNS,42.4 µM
same,TGI,SNB-75 CNS,> 71.3 µM
same,TGI,SNB-78 CNS,95.2 µM
same,TGI,SR leukemia,> 65.9 µM
same,TGI,SW-620 colon,32.3 µM
same,TGI,TK-10 renal,34 µM
same,TGI,U251 CNS,29.5 µM
same,TGI,UACC-257 melanoma,> 31.6 µM
same,TGI,UACC-62 melanoma,34 µM
same,TGI,UO-31 renal,30.5 µM
same,TGI,XF 498 CNS,31.2 µM
Nc1nc2c(ncn2CC(CO)CC(c2ccccc2)P(=O)(O)O)c(=O)[nH]1 (stereo not given),TGI,786-0 renal,> 100 µM
same,TGI,A498 renal,> 100 µM
same,TGI,A549 NSCLC,> 100 µM
same,TGI,ACHN renal,> 100 µM
same,TGI,CAKI-1 renal,> 100 µM
same,TGI,CCRF-CEM leukemia,> 100 µM
same,TGI,COLO 205 colon,> 100 µM
same,TGI,DLD-1 colon,> 100 µM
same,TGI,DMS 114 small cell lung,> 100 µM
same,TGI,DMS 273 small cell lung,> 100 µM
same,TGI,EKVX NSCLC,> 100 µM
same,TGI,HCC-2998 colon,> 100 µM
same,TGI,HCT-116 colon,> 100 µM
same,TGI,HCT-15 colon,> 100 µM
same,TGI,HL-60(TB) leukemia,> 100 µM
same,TGI,HOP-18 NSCLC,> 100 µM
same,TGI,HOP-62 NSCLC,> 100 µM
same,TGI,HOP-92 NSCLC,> 100 µM
same,TGI,HT29 colon,> 100 µM
same,TGI,IGROV1 ovarian,> 100 µM
same,TGI,K-562 leukemia,> 100 µM
same,TGI,KM12 colon,> 100 µM
same,TGI,KM20L2 colon,> 100 µM
same,TGI,LOX IMVI melanoma,> 100 µM
same,TGI,LXFL 529 NSCLC,> 100 µM
same,TGI,M14 melanoma,> 100 µM
same,TGI,M19-MEL melanoma,> 100 µM
same,TGI,MALME-3M melanoma,> 100 µM
same,TGI,MOLT-4 leukemia,> 100 µM
same,TGI,NCI-H226 lung,> 100 µM
same,TGI,NCI-H23 lung,> 100 µM
same,TGI,NCI-H460 lung,> 100 µM
same,TGI,NCI-H522 lung,> 100 µM
same,TGI,OVCAR-3 ovarian,> 100 µM
same,TGI,OVCAR-5 ovarian,> 100 µM
same,TGI,OVCAR-8 ovarian,> 100 µM
same,TGI,RPMI-8226 leukemia,> 100 µM
same,TGI,RXF 393 renal,> 100 µM
same,TGI,SF-268 CNS,> 100 µM
same,TGI,SF-295 CNS,> 100 µM
same,TGI,SF-539 CNS,> 100 µM
same,TGI,SK-MEL-2 melanoma,> 100 µM
same,TGI,SK-MEL-28 melanoma,> 100 µM
same,TGI,SK-MEL-5 melanoma,> 100 µM
same,TGI,SK-OV-3 ovarian,> 100 µM
same,TGI,SN12C renal,> 100 µM
same,TGI,SNB-19 CNS,> 100 µM
same,GI50,SNB-75 CNS,13.2 µM and > 100 µM
same,TGI,SNB-75 CNS,> 100 µM
same,TGI,SNB-78 CNS,> 100 µM
same,TGI,SR leukemia,> 100 µM
same,TGI,SW-620 colon,> 100 µM
same,TGI,TK-10 renal,> 100 µM
same,TGI,U251 CNS,> 100 µM
same,TGI,UACC-257 melanoma,> 100 µM
same,TGI,UACC-62 melanoma,> 100 µM
same,TGI,UO-31 renal,> 100 µM
same,TGI,XF 498 CNS,> 100 µM
CCNC(CCCC(NCC)P(=O)(O)O)P(=O)(O)O (stereo not given),TGI,A498 renal,> 100 µM
same,TGI,A549 NSCLC,> 100 µM
same,TGI,CCRF-CEM leukemia,> 100 µM
same,TGI,HCT-116 colon,> 100 µM
same,TGI,HL-60(TB) leukemia,> 100 µM
same,TGI,HOP-62 NSCLC,> 100 µM
same,TGI,HOP-92 NSCLC,> 100 µM
same,TGI,HT29 colon,> 100 µM
same,TGI,IGROV1 ovarian,> 100 µM
same,TGI,KM12 colon,> 100 µM
same,TGI,KM20L2 colon,> 100 µM
same,TGI,M14 melanoma,> 100 µM
same,TGI,M19-MEL melanoma,> 100 µM
same,TGI,MOLT-4 leukemia,> 100 µM
same,TGI,NCI-H226 lung,> 100 µM
same,TGI,NCI-H23 lung,> 100 µM
same,TGI,NCI-H460 lung,> 100 µM
same,TGI,NCI-H522 lung,> 100 µM
same,TGI,OVCAR-5 ovarian,> 100 µM
same,TGI,OVCAR-8 ovarian,> 100 µM
same,TGI,RXF 393 renal,> 100 µM
same,TGI,RXF-631 renal,> 100 µM
same,TGI,SF-295 CNS,> 100 µM
same,TGI,SK-MEL-28 melanoma,> 100 µM
same,TGI,SK-OV-3 ovarian,> 100 µM
same,TGI,SNB-19 CNS,> 100 µM
same,TGI,SNB-78 CNS,> 100 µM
same,TGI,SR leukemia,> 100 µM
same,TGI,TK-10 renal,> 100 µM
same,TGI,U251 CNS,> 100 µM
same,TGI,UACC-257 melanoma,> 100 µM
same,TGI,UACC-62 melanoma,> 100 µM
same,TGI,UO-31 renal,> 100 µM
